Laboratory results from patent publication US12473262B2, “Aryl hydrocarbon receptor activators” (Oregon State University, priority 2019, dated 2025).
Where two headings read alike, the source gives them in different places.

Assays:
CYP-3A4 = CYP-3A4 (Homo sapiens (Human), UniProt P08684); assay: CYP panel profile: P450 inhibition, CYP-3A4; format: in vitro ADME; conditions: human liver microsomes
Protocol: (§1) 5. CYP Panel Profile: P450 Inhibition
(§2) From 10 mM stock solutions of test compounds, a dilution plate was prepared diluting serially starting from 5 mM up to 2 μM in Acetonitrile/DMSO or Methanol/DMSO Human liver Microsomes were added at required concentration as per specific CYP isoform in a deep well assay plate (1A2, 2C9, 2D6, 2B6, 2C8, 2C19, and 3A4). Compounds were spiked in all wells from dilution plate at final concentrations starting from 50 μM up to 0.02 μM, except for positive and negative control. Specific substrate were added to all wells and reactions were pre-incubated for 10 min. To start reactions, NADPH was added to all wells at 1 mM final concentration. Assay plate was mixed by vortexing and incubated at 37° C. for […] for 3A4.20 min for (1A2, 2C9, 2B6, 2C8, 2D6) and […] for 2C19. A quencher with chilled acetonitrile suitable internal standard was added. Samples were centrifuged and supernatants were collected and subjected to LC-MS/MS analysis for determination.

CYP-2C19 = CYP-2C19 (Homo sapiens (Human), UniProt P33261); assay: CYP panel profile: P450 inhibition, CYP-2C19; format: in vitro ADME; conditions: human liver microsomes
Protocol: as §1, §2

CYP-2D6 = CYP-2D6 (Homo sapiens (Human), UniProt P10635); assay: CYP panel profile: P450 inhibition, CYP-2D6; format: in vitro ADME; conditions: human liver microsomes
Chain of CYP-2D6 (P10635 whole entry): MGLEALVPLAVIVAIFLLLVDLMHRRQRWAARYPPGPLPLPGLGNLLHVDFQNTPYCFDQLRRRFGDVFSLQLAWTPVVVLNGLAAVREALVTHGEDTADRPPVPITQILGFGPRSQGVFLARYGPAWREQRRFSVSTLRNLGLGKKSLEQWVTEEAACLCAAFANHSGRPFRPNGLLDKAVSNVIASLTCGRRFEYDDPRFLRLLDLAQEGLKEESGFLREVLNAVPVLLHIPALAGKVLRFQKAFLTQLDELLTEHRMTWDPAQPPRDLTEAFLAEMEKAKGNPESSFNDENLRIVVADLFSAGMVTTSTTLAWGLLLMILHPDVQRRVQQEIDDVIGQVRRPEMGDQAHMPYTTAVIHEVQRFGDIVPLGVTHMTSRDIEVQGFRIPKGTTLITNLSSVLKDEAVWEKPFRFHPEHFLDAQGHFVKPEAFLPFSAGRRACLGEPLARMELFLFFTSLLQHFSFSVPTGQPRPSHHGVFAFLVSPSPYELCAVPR
Protocol: as §1, §2

[1] = biological target: aryl hydrocarbon receptor (AhR) (Mus musculus (Mouse), UniProt P30561); assay: AhR ligand screening: AhRE-luciferase reporter in transfected Hepa1 cells; format: cell-based; conditions: for Fold @ 1 nM: fold change of luciferase expression at 1 nM test compound relative to vehicle (0.1% DMSO); for Fold @ 100 nM: fold change of luciferase expression at 100 nM test compound relative to vehicle (0.1% DMSO); for Fold @ 10 uM: fold change of luciferase expression at 10 uM test compound relative to vehicle (0.1% DMSO); for Fold relative to benchmark @ 100 nM: luciferase expression at 100 nM test compound relative to 100 nM benchmark compound 11-cl-BBQ
Chain of aryl hydrocarbon receptor (AhR) (P30561 10-805): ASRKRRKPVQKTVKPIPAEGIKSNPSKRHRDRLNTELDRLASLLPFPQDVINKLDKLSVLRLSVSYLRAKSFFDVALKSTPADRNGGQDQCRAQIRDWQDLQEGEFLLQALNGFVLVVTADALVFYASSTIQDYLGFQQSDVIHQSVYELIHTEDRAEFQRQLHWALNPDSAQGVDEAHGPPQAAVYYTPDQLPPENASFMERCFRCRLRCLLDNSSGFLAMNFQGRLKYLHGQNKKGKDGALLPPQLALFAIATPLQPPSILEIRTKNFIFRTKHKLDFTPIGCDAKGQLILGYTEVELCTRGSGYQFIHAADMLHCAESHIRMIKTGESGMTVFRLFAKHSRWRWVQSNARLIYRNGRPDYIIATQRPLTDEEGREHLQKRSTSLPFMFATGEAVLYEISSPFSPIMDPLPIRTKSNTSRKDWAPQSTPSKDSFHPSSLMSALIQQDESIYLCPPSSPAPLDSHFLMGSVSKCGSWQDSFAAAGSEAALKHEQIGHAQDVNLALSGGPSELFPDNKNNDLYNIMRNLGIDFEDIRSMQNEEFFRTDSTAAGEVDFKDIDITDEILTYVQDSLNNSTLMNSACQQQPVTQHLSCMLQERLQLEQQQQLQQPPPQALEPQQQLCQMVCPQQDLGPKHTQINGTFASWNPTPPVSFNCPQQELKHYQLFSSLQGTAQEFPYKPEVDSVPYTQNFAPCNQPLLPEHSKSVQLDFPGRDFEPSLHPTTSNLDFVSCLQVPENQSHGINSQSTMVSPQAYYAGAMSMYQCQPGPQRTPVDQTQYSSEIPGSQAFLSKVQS
Chain of aryl hydrocarbon receptor (AhR) (P53762 whole entry partner): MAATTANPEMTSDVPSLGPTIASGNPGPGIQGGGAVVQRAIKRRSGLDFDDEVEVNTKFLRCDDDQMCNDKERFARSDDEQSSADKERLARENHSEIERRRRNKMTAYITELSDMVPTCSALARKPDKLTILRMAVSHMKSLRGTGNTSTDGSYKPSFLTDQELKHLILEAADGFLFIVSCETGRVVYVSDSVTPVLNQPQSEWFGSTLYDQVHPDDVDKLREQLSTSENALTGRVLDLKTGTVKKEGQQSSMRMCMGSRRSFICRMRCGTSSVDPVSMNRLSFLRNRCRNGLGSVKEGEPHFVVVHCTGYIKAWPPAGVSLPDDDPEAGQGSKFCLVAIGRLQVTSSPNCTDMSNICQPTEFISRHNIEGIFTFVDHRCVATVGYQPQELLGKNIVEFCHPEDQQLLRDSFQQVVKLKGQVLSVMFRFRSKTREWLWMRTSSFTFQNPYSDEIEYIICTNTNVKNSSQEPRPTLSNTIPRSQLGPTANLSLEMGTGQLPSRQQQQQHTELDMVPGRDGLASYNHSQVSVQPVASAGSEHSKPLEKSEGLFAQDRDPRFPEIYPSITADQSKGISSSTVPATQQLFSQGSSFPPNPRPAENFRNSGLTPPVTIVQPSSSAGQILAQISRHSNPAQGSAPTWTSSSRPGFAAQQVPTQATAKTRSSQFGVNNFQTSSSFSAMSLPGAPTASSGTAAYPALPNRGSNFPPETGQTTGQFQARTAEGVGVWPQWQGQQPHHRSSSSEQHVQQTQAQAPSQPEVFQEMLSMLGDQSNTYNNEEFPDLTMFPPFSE
Outline: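 Values are fold luciferase induction relative to vehicle (0.1% DMSO), read by luminometry of lysates from Hepa1 cells carrying an AhRE-driven luciferase reporter. Cells were seeded at 1×10^4 per well, grown overnight and treated with compound before lysis.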

CYP-2B6 = CYP-2B6 (Homo sapiens (Human), UniProt P20813); assay: CYP panel profile: P450 inhibition, CYP-2B6; format: in vitro ADME; conditions: human liver microsomes
Chain of CYP-2B6 (P20813 whole entry): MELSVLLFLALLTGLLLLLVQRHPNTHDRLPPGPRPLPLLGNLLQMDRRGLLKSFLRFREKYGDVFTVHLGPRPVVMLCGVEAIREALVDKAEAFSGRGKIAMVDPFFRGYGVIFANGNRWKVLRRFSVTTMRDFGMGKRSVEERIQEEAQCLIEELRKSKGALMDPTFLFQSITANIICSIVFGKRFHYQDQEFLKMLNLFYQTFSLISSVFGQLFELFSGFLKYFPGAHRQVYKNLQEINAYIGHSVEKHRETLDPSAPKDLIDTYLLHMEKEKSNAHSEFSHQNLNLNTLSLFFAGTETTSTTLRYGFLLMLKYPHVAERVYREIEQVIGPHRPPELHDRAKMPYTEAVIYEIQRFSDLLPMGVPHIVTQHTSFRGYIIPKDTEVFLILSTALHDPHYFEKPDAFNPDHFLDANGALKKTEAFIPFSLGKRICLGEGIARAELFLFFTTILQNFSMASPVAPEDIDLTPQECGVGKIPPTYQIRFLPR
Protocol: as §1, §2

CYP-2C9 = CYP-2C9 (Homo sapiens (Human), UniProt P11712); assay: CYP panel profile: P450 inhibition, CYP-2C9; format: in vitro ADME; conditions: human liver microsomes
Chain of CYP-2C9 (P11712 whole entry): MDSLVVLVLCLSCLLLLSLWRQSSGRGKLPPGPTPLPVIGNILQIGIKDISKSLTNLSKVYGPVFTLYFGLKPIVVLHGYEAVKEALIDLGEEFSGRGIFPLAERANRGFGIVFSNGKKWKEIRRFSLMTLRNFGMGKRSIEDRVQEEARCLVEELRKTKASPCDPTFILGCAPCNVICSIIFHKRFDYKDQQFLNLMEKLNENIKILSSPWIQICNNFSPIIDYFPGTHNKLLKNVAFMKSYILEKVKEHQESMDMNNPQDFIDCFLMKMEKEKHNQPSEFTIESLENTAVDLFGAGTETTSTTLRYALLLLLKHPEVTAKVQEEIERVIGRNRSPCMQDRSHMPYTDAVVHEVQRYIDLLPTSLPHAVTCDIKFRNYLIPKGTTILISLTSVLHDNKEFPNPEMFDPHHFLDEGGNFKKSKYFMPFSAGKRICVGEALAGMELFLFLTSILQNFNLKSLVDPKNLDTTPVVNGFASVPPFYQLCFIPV
Protocol: as §1, §2

CYP-1A2 = CYP-1A2 (Homo sapiens (Human), UniProt P05177); assay: CYP panel profile: P450 inhibition, CYP-1A2; format: in vitro ADME
Chain of CYP-1A2 (P05177 whole entry): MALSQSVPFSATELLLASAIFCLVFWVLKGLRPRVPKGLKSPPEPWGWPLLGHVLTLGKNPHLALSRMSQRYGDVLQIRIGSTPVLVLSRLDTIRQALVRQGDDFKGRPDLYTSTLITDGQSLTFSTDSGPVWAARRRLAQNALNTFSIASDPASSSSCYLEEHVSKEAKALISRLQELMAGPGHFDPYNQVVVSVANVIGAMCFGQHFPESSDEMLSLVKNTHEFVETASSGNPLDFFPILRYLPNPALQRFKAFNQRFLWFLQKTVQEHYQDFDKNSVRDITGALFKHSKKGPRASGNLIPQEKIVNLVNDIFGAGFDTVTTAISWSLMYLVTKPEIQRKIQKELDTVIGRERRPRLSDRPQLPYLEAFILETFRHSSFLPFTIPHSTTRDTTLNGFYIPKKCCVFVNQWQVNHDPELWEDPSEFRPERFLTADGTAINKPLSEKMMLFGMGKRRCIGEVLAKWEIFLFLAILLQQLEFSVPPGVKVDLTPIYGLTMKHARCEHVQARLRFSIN
Protocol: as §1, §2

CYP-2C8 = CYP-2C8 (Homo sapiens (Human), UniProt P10632); assay: CYP panel profile: P450 inhibition, CYP-2C8; format: in vitro ADME; conditions: human liver microsomes
Chain of CYP-2C8 (P10632 whole entry): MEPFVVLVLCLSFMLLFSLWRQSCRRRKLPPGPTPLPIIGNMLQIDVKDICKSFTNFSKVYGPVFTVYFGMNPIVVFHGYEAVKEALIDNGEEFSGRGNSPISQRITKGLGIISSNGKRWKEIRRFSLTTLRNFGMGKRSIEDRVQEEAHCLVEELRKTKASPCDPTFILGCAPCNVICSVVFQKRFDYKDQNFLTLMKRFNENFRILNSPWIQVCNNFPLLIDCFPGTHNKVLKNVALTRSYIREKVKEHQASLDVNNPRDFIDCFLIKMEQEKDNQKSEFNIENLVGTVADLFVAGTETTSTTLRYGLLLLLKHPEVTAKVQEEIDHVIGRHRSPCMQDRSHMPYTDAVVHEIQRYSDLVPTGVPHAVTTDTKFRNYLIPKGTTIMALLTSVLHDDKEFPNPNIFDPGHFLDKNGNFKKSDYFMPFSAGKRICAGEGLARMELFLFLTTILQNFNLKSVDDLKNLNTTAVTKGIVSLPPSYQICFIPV
Protocol: as §1, §2

[2] = Liver microsomal stability, mouse; conditions: for Rem @ MLM × 30 min: mouse liver microsomes, 1 μM compound, 0.5 mg/ml protein; for half-life at 1 μM / microsomal CLint at 1 μM: mouse, liver microsomes, pH 7.4
[3] = In vivo PK study, intravenous and oral administration in male mice; set-up: species or system mouse; conditions: plasma; for C0: read-out: C0_Cmax
Protocol: In Vivo PK Study Pharmacokinetics of Exemplary Compounds 362 and 893 Following an Intravenous and Oral Administration in Male C57BL/6J Mice.
Male C57BL/6J mice, approximately 8-10 weeks old, were obtained from the vivarium of Fundación Ciencia & Vida Chile (Santiago, Chile). Dosing solution of Compound 362 for PO administration was formulated in a vehicle containing 40% DMSO, 20% Kolliphor EL, 40% Propylene Glycol at 0.8 mg/mL. Dosing solution of Compound 362 for IV administration was formulated in a vehicle containing 30% DMSO, 20% Kolliphor EL, 50% PBS at […].
Male […] mice, approximately 8-11 weeks old, 22-27 grams were obtained from the vivarium Fundación Ciencia & Vida Chile (Santiago, Chile). Animals were acclimated for a minimum period of 4 days upon arrival at the testing facility. Animals were weighed, identified by marking the tail with numbers using a non-toxic permanent marker and designated into the following treatment groups on the day of dosing:
Group 1 animals received an IV administration via caudal vein of 2 mg/kg PRXS0362 dosing solution.
Group 2 animals received a PO administration via feeding tubes (20 gauge) of 8 mg/kg PRXS0362 dosing solution.
Terminal whole blood was collected via cardiac puncture for group 1 at the following time points: 5, 10, 15, 30, 60, 120, 240, 360, and 480 minutes. Non-dosed mice were used to collect samples of zero time points. For the group 2 at the following time point: 15, 30, 60, 120, 240, 360, and 480 minutes.
Whole blood, approximately 300 μL per time point, was collected into microtainer tubes with EDTA (K2). Blood samples were centrifuged immediately at approximately 9,000 G at 4° C. for 5 minutes and plasma separated. Plasma samples were placed into individually labeled tubes and stored in a −80° C. freezer prior to LC/MS/MS analysis.
The whole brain was collected at each point only for both groups, for this the animals were euthanized with CO2, decapitated, the brain was extracted weighed, frozen in liquid nitrogen and stored at −80° C. prior to LC/MS/MS analysis.
Compound 893 was tested by the same protocol as above.

[4] = Liver microsomal stability, rat; conditions: for Rem @ RLM × 30 min: rat liver microsomes, 1 μM compound, 0.5 mg/ml protein; for half-life at 1 μM / microsomal CLint at 1 μM: rat, liver microsomes, pH 7.4
[5] = Liver microsomal stability, human
[6] = human liver microsomes, read-out: CYP-1A2 IC50
[7] = human, liver microsomes, pH 7.4

Chain of CYP-3A4 (P08684 whole entry): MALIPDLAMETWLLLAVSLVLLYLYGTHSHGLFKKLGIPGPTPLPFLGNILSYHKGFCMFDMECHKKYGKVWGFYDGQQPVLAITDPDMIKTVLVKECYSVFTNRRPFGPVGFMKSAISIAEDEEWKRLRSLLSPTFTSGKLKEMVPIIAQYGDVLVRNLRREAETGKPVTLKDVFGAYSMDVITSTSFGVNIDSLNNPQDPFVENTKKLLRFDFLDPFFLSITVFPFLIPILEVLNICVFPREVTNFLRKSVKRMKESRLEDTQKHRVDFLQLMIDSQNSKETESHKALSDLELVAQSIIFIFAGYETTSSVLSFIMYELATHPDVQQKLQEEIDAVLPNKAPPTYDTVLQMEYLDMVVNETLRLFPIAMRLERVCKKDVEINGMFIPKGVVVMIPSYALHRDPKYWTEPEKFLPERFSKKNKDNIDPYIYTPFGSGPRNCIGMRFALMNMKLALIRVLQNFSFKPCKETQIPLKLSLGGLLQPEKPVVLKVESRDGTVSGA

Clc1ccc2c(c1)nc1n2Cc2cccc3cccc-1c23 [Compound 435, 6-chloro-3,10-diazapentacyclo[10.7.1.0^2,10.0^4,9.0^16,20]icosa-1(19),2,4(9),5,7,12,14,16(20),17-nonaene]
IC50 (CYP-3A4): 5.3 µM
IC50 (CYP-2C19): > 50 µM
IC50 (CYP-2D6): > 50 µM
Fold @ 1 nM [1]: 4 fold
Fold @ 100 nM [1]: 28 fold
Fold @ 10 uM [1]: 60 fold
Fold relative to benchmark @ 100 nM [1]: 0.7 fold
IC50 (CYP-2B6): > 50 µM
IC50 (CYP-2C9): > 50 µM
IC50 (CYP-1A2): < 0.02 µM
IC50 (CYP-2C8): 19.2 µM

COc1ccc(C(=O)n2c(-c3cccc4ccccc34)nc3ccc(Cl)cc32)cc1 [Compound 536, (6-chloro-2-(naphthalen-1-yl)-1H-benzo[d]imidazol-1-yl)(4-methoxyphenyl)methanone]
IC50 (CYP-3A4): 1.7 µM
IC50 (CYP-2C19): 2.6 µM
IC50 (CYP-2D6): > 50 µM
Fold @ 1 nM [1]: 1 fold
Fold @ 100 nM [1]: 39 fold
Fold @ 10 uM [1]: 41 fold
Fold relative to benchmark @ 100 nM [1]: 0.98 fold
IC50 (CYP-2B6): 16 µM
IC50 (CYP-2C9): 4.8 µM
IC50 (CYP-1A2; [6]): 0.6 µM
IC50 (CYP-2C8): 17.1 µM

COC(=O)c1ccc2c(c1)nc(-c1cccc3ccccc13)n2C(=O)c1ccc(F)c(F)c1 [Compound 848]
IC50 (CYP-3A4): 13.7 µM
IC50 (CYP-2C19): 1.1 µM
IC50 (CYP-2D6): 2.9 µM
Fold @ 1 nM [1]: 1 fold
Fold @ 100 nM [1]: 1 fold
Fold @ 10 uM [1]: 5 fold
Fold relative to benchmark @ 100 nM [1]: 0.04 fold
IC50 (CYP-2B6): 16.7 µM
IC50 (CYP-2C9): 6.3 µM
IC50 (CYP-1A2; [6]): 2.6 µM
IC50 (CYP-2C8): 3.5 µM

O=C(c1ccc(F)cc1)n1c(-c2cccc3ccccc23)nc2ccc(Cl)cc21 [Compound 587]
IC50 (CYP-3A4): 6.3 µM
IC50 (CYP-2C19): 6.7 µM
IC50 (CYP-2D6): 26 µM
Fold @ 1 nM [1]: 2 fold
Fold @ 100 nM [1]: 16 fold
Fold @ 10 uM [1]: 19 fold
Fold relative to benchmark @ 100 nM [1]: 1.07 fold
IC50 (CYP-2B6): 11.6 µM
IC50 (CYP-2C9): 5.3 µM
IC50 (CYP-1A2; [6]): 0.4 µM
IC50 (CYP-2C8): 3.2 µM

O=C(c1ccc(F)cc1)n1c(-c2cccc3ccccc23)nc2cc(Cl)ccc21 [Compound 586]
IC50 (CYP-3A4): 1.3 µM
IC50 (CYP-2C19): 7.1 µM
IC50 (CYP-2D6): > 50 µM
Fold @ 1 nM [1]: 7 fold
Fold @ 100 nM [1]: 20 fold
Fold @ 10 uM [1]: 18 fold
Fold relative to benchmark @ 100 nM [1]: 1.33 fold
IC50 (CYP-2B6): 22 µM
IC50 (CYP-2C9): 7.9 µM
IC50 (CYP-1A2; [6]): 1.7 µM
IC50 (CYP-2C8): 9.1 µM

O=C(c1ccccc1)n1c(-c2cccc3ccccc23)nc2cc(OC(F)(F)F)ccc21 [Compound 703]
IC50 (CYP-3A4): 10.3 µM
IC50 (CYP-2C19): 0.5 µM
IC50 (CYP-2D6): > 50 µM
Fold @ 1 nM [1]: 1 fold
Fold @ 100 nM [1]: 22 fold
Fold @ 10 uM [1]: 23 fold
Fold relative to benchmark @ 100 nM [1]: 0.85 fold
IC50 (CYP-2B6): 12 µM
IC50 (CYP-2C9): 5.3 µM
IC50 (CYP-1A2; [6]): 0.8 µM
IC50 (CYP-2C8): 4.2 µM

O=C(c1cccc2ccccc12)n1c(-c2cccc3ccccc23)nc2cc(Cl)ccc21 [Compound 704]
IC50 (CYP-3A4): 3.9 µM
IC50 (CYP-2C19): 4.6 µM
IC50 (CYP-2D6): > 50 µM
IC50 (CYP-2B6): 8.2 µM
IC50 (CYP-2C9): 8.9 µM
IC50 (CYP-1A2; [6]): 1.2 µM
IC50 (CYP-2C8): 5.6 µM

O=c1c2cccc3cccc(c32)c2nc3cc(Cl)ccc3n12 [Compound 362, 6-chloro-3,10-diazapentacyclo[10.7.1.0^2,10.0^4,9.0^16,20]icosa-1(19),2,4(9),5,7,12,14,16(20),17-nonaen-11-one]
Rem @ MLM × 30 min [2]: 12.0%
half-life at 1 μM [2]: 9.8 min
microsomal CLint at 1 μM [2]: 141 µL/min/mg
Fold @ 1 nM [1]: 16 fold
Fold @ 100 nM [1]: 22 fold
Fold relative to benchmark @ 100 nM [1]: 1 fold
CL_CL/F ([3]; IV 2 mg/Kg): 4.418 L/[Kg*h]
Vd_Vd/F ([3]; IV 2 mg/Kg): 5.67 L/kg
thalf ([3]; IV 2 mg/Kg): 0.889 h
CL_CL/F ([3]; PO 8 mg/Kg): 7.86 L/[Kg*h]
Vd_Vd/F ([3]; PO 8 mg/Kg): 8.314 L/kg
thalf ([3]; PO 8 mg/Kg): 0.733 h
AUC(0-inf) ([3]; mouse, IV 2 mg/Kg): 453 ng·h/mL
AUC(0-t) ([3]; mouse, IV 2 mg/Kg): 451 ng·h/mL
MRT ([3]; mouse, IV 2 mg/Kg): 52.3 min
C0 ([3]; mouse, IV 2 mg/Kg): 215 ng/mL
bioavailability ([3]; mouse, PO 8 mg/Kg vs IV 2 mg/Kg): 56.2%
AUC(0-inf) ([3]; mouse, PO 8 mg/Kg): 1020 ng·h/mL
AUC(0-t) ([3]; mouse, PO 8 mg/Kg): 1020 ng·h/mL
MRT ([3]; mouse, PO 8 mg/Kg): 98 min
Tmax ([3]; mouse, PO 8 mg/Kg): 60 min
C0 ([3]; mouse, PO 8 mg/Kg): 427 ng/mL
Rem @ RLM × 30 min [4]: 14.5%
half-life at 1 μM [4]: 11.4 min
microsomal CLint at 1 μM [4]: 121 µL/min/mg

O=S(=O)(c1ccc(C(F)(F)F)cc1)n1c(-c2cccc3ccccc23)nc2cc(Cl)ccc21 [Compound 781]
Rem @ MLM × 30 min [2]: 18.0%
half-life at 1 μM [2]: 12.1 min
microsomal CLint at 1 μM [2]: 115 µL/min/mg
Fold @ 1 nM [1]: 1 fold
Fold @ 100 nM [1]: 20 fold
Fold @ 10 uM [1]: 24 fold
Fold relative to benchmark @ 100 nM [1]: 0.8 fold
Rem @ HLM × 30 min ([5]; human liver microsomes, 30 min, 1 μM compound, 0.5 mg/ml protein): 44.4%
half-life at 1 μM [5, 7]: 24.6 min
microsomal CLint at 1 μM [5, 7]: 56.3 µL/min/mg
Rem @ RLM × 30 min [4]: 43.1%
half-life at 1 μM [4]: 24.4 min
microsomal CLint at 1 μM [4]: 56.8 µL/min/mg
